Where two headings read alike, the source gives them in different places. Square brackets hold non-standard residues; d marks the D form. Peptide text beside a SMILES is read from it. * marks the point of attachment. Gly(N-(2R-Ph-propyl)) = C[C@@H](CNCC(=O)O)c1ccccc1; Piperidin1yl(4-NH2,4-COOH) = NC1(C(=O)O)CCN(*)CC1
What was measured:
[1] = Description: High performance liquid chromatography (HPLC) was determined on an Agilent 1200DAD high pressure liquid chromatograph (Sunfire C18 150×4.6 mm column) and Waters 2695-2996 high pressure liquid chromatograph (Gimini C18 150×4.6 mm column).
The study period was 20 days.

[2] = Solubility of the active ingredient (statement); assay type: physicochemical; settings: free compound, background statement

SMILES	Purity % ([1]; 40° C., 5 days)	Purity % ([1]; 40° C., 10 days)	Purity % ([1]; 40° C., 20 days)	Purity % ([1]; 60° C., 5 days)	Purity % ([1]; 60° C., 10 days)	Purity % ([1]; 60° C., 20 days)	Purity % ([1]; 4500 Lux, 0 day (start value))	Purity % ([1]; 4500 Lux, 5 days)	Purity % ([1]; 4500 Lux, 10 days)	Purity % ([1]; 4500 Lux, 20 days)	Stability of the salt (conclusion in words) ([1]; lighting, 40° C. and 60° C., 20 days)	Solubility (in words) [2]
CC(C)C[C@@H](NC(=O)[C@@H](Cc1ccccc1)NC(=O)CNC[C@H](C)c1ccccc1)C(=O)N[C@H](CCCCN)C(=O)N1CCC(N)(C(=O)O)CC1.Cl.Cl.Cl [Hydrochloride (1:3), 4-Amino-N—[N^2—[N—[N—[N-((R)-2-phenylpropyl)glycyl]-D-phenylalanyl]-D-leucyl]-D-lysyl]piperidine-4-carboxylic acid hydrochloride (1:3)] (H-[Gly(N-(2R-Ph-propyl))][dF][dL][dK]-{Piperidin1yl(4-NH2,4-COOH)})	96.54%	96.42%	96.41%	96.42%	96.43%	96.41%	96.50%	95.57%	94.27%	94.24%	good stability	
CC(C)C[C@@H](NC(=O)[C@@H](Cc1ccccc1)NC(=O)CNC[C@H](C)c1ccccc1)C(=O)N[C@H](CCCCN)C(=O)N1CCC(N)(C(=O)O)CC1 [Compound A, 4-amino-N—[N^2—[N—[N—[N-((R)-2-phenylpropyl)glycyl]-D-phenylalanyl]-D-leucyl]-D-lysyl]piperidine-4-carboxylic acid] (H-[Gly(N-(2R-Ph-propyl))][dF][dL][dK]-{Piperidin1yl(4-NH2,4-COOH)})												low solubility

From patent US20210205404A1, “PHARMACEUTICAL COMPOSITION OF KOR RECEPTOR AGONIST” (JIANGSU HENGRUI MEDICINE CO., LTD., priority 2018, published 2021)
